Results on 30 compounds are retold here after patent US8524745B2 (Allergan, Inc., priority 2011, dated 2013).

A value given as a limit tells only on which side of the number the result lay.

In this assay the target is T1, CCR2 (Homo sapiens, UniProt P41597).
T1 construct: expressed in transfected cells
T1 sequence (P41597 whole entry, species assumed): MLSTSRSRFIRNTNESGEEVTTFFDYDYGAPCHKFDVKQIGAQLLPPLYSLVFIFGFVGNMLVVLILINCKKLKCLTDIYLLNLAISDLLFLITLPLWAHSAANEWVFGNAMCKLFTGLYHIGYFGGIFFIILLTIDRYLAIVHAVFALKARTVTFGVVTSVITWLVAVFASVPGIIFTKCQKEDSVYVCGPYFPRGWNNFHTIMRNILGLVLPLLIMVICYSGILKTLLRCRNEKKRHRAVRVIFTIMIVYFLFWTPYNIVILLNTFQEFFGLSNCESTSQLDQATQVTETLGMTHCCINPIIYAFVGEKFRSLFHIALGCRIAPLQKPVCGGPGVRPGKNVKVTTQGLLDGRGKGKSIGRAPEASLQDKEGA
Description: CCR2 calcium activity assay on FLIPR Tetra in HEK-Gqi5 cells stably expressing CCR2. Format: cell-based.
On to `Cc1ccc(S(=O)(=O)Nc2ccc(Cl)cc2NS(=O)(=O)c2ccc3c(c2)c(=O)sn3C)s1` [N-(5-chloro-2-{[(5-methyl-2-thienyl)sulfonyl]amino}phenyl)-1-methyl-3-oxo-1,3-dihydro-2,1-benzisothiazole-5-sulfonamide], for which the “CCR2 % ANTAG” value was 95% and the IC50 was found to be 497 nM.
Turning to `Cn1sc(=O)c2cc(S(=O)(=O)Nc3cc(Cl)cc4c3OCCO4)ccc21` [N-(7-chloro-2,3-dihydro-1,4-benzodioxin-5-yl)-1-methyl-3-oxo-1,3-dihydro-2,1-benzisothiazole-5-sulfonamide], the “CCR2 % ANTAG” value turned out to be 63% and the IC50 was 1670 nM.
Turning to `Cn1sc(=O)c2cc(S(=O)(=O)Nc3ccccc3NS(=O)(=O)c3cc(C(F)(F)F)cc(C(F)(F)F)c3)ccc21` [N-[2-({[3,5-bis(trifluoromethyl)phenyl]sulfonyl}amino)phenyl]-1-methyl-3-oxo-1,3-dihydro-2,1-benzisothiazole-5-sulfonamide], the “CCR2 % ANTAG” value was found to be 94% and the IC50 came out at 2070 nM.
Regarding `Cn1sc(=O)c2cc(S(=O)(=O)Nc3ccccc3NS(=O)(=O)c3ccc(Cl)c(C(F)(F)F)c3)ccc21` [N-[2-({[4-chloro-3-(trifluoromethyl)phenyl]sulfonyl}amino)phenyl]-1-methyl-3-oxo-1,3-dihydro-2,1-benzisothiazole-5-sulfonamide], the “CCR2 % ANTAG” value was 100% and the IC50 came out at 412 nM.
Consider `Cn1sc(=O)c2cc(S(=O)(=O)Nc3cc(Cl)c(Cl)cc3NS(=O)(=O)c3ccc(Cl)c(C(F)(F)F)c3)ccc21` [N-[4,5-dichloro-2-({[4-chloro-3-(trifluoromethyl)phenyl]sulfonyl}amino)phenyl]-1-methyl-3-oxo-1,3-dihydro-2,1-benzisothiazole-5-sulfonamide], for which the “CCR2 % ANTAG” value was determined as 84% and the concentration for half-maximal inhibition (IC50) turned out to be 529 nM.
On to `CN(C)c1cccc(S(=O)(=O)Nc2ccc(Cl)cc2NS(=O)(=O)c2ccc3c(c2)c(=O)sn3C)c1` [N-[5-chloro-2-({[3-(dimethylamino)phenyl]sulfonyl}amino)phenyl]-1-methyl-3-oxo-1,3-dihydro-2,1-benzisothiazole-5-sulfonamide], for which the “CCR2 % ANTAG” value was found to be 69% and the IC50 came out at 678 nM.
In the case of `CN(C)c1ccc(S(=O)(=O)Nc2ccc(Cl)cc2NS(=O)(=O)c2ccc3c(c2)c(=O)sn3C)cc1` [N-[5-chloro-2-({[4-(dimethylamino)phenyl]sulfonyl}amino)phenyl]-1-methyl-3-oxo-1,3-dihydro-2,1-benzisothiazole-5-sulfonamide], the “CCR2 % ANTAG” value is 64% and the IC50 turned out to be 1650 nM.
Regarding `Cn1sc(=O)c2cc(S(=O)(=O)Nc3cc(Cl)ccc3NS(=O)(=O)c3ccc(Cl)c(C(F)(F)F)c3)ccc21` [N-[5-chloro-2-({[4-chloro-3-(trifluoromethyl)phenyl]sulfonyl}amino)phenyl]-1-methyl-3-oxo-1,3-dihydro-2,1-benzisothiazole-5-sulfonamide], the “CCR2 % ANTAG” value came out at 88% and the IC50 stood at 240 nM.
On to `Cn1sc(=O)c2cc(S(=O)(=O)Nc3cccc4c3Oc3ccccc3O4)ccc21` [N-dibenzo[b,e][1,4]dioxin-1-yl-1-methyl-3-oxo-1,3-dihydro-2,1-benzisothiazole-5-sulfonamide], for which the “CCR2 % ANTAG” value was determined as 67% and the concentration for half-maximal inhibition (IC50) came out at 1460 nM.
On to `Cn1sc(=O)c2cc(S(=O)(=O)NC(C)(C)CNS(=O)(=O)c3cccs3)ccc21` [N-{1,1-dimethyl-2-[(2-thienylsulfonyl)amino]ethyl}-1-methyl-3-oxo-1,3-dihydro-2,1-benzisothiazole-5-sulfonamide], for which the “CCR2 % ANTAG” value was determined as 20% and the IC50 turned out to be 2490 nM.
Regarding `Cn1sc(=O)c2cc(S(=O)(=O)N3CCCC(NS(=O)(=O)c4cccs4)C3)ccc21` (centres unmarked) [N-{1-[(1-methyl-3-oxo-1,3-dihydro-2,1-benzisothiazol-5-yl)sulfonyl]piperidin-3-yl}thiophene-2-sulfonamide], the “CCR2 % ANTAG” value turned out to be 54%.
Turning to `Cn1sc(=O)c2cc(S(=O)(=O)N3CCC(NS(=O)(=O)c4cccs4)C3)ccc21` (centres unmarked) [N-{1-[(1-methyl-3-oxo-1,3-dihydro-2,1-benzisothiazol-5-yl)sulfonyl]pyrrolidin-3-yl}thiophene-2-sulfonamide], the “CCR2 % ANTAG” value stood at 44% and the IC50 came out at 2760 nM.
As for `Cn1sc(=O)c2cc(S(=O)(=O)Nc3ccccc3NS(=O)(=O)c3c[nH]cn3)ccc21` [N-{2-[(1H-imidazol-4-ylsulfonyl)amino]phenyl}-1-methyl-3-oxo-1,3-dihydro-2,1-benzisothiazole-5-sulfonamide], the “CCR2 % ANTAG” value is 0% and the IC50 was greater than 8300 nM.
Take `Cn1sc(=O)c2cc(S(=O)(=O)Nc3ccccc3NS(=O)(=O)c3ccco3)ccc21` [N-{2-[(2-furylsulfonyl)amino]phenyl}-1-methyl-3-oxo-1,3-dihydro-2,1-benzisothiazole-5-sulfonamide]: the “CCR2 % ANTAG” value is reported as 104% and the 50% inhibitory concentration (IC50) is 744 nM.
`Cn1sc(=O)c2cc(S(=O)(=O)Nc3ccccc3NS(=O)(=O)c3ccoc3)ccc21` [N-{2-[(3-furylsulfonyl)amino]phenyl}-1-methyl-3-oxo-1,3-dihydro-2,1-benzisothiazole-5-sulfonamide]: the “CCR2 % ANTAG” value is 73%.
`Cn1sc(=O)c2cc(S(=O)(=O)Nc3c(Cl)cccc3NS(=O)(=O)c3cccs3)ccc21` [N-{2-chloro-6-[(2-thienylsulfonyl)amino]phenyl}-1-methyl-3-oxo-1,3-dihydro-2,1-benzisothiazole-5-sulfonamide]: the “CCR2 % ANTAG” value is listed as 106% and the IC50 came to 468 nM.
For `Cn1sc(=O)c2cc(S(=O)(=O)Nc3c(F)cccc3NS(=O)(=O)c3cccs3)ccc21` [N-{2-fluoro-6-[(2-thienylsulfonyl)amino]phenyl}-1-methyl-3-oxo-1,3-dihydro-2,1-benzisothiazole-5-sulfonamide], in that order: 105% and 471 nM.
`Cn1sc(=O)c2cc(S(=O)(=O)Nc3cccc(Cl)c3NS(=O)(=O)c3cccs3)ccc21` [N-{3-chloro-2-[(2-thienylsulfonyl)amino]phenyl}-1-methyl-3-oxo-1,3-dihydro-2,1-benzisothiazole-5-sulfonamide]: the “CCR2 % ANTAG” value is 100% and the IC50 was found to be 823 nM.
Consider `COc1cccc(NS(=O)(=O)c2ccc3c(c2)c(=O)sn3C)c1NS(=O)(=O)c1cccs1` [N-{3-methoxy-2-[(2-thienylsulfonyl)amino]phenyl}-1-methyl-3-oxo-1,3-dihydro-2,1-benzisothiazole-5-sulfonamide], for which the “CCR2 % ANTAG” value was found to be 52%.
With `Cn1sc(=O)c2cc(S(=O)(=O)Nc3cc(Cl)c(Cl)cc3NS(=O)(=O)c3cccs3)ccc21` [N-{4,5-dichloro-2-[(2-thienylsulfonyl)amino]phenyl}-1-methyl-3-oxo-1,3-dihydro-2,1-benzisothiazole-5-sulfonamide], the “CCR2 % ANTAG” value was found to be 99% and the half-inhibitory concentration (IC50) worked out at 361 nM.
For `Cc1cc(NS(=O)(=O)c2ccc3c(c2)c(=O)sn3C)c(NS(=O)(=O)c2cccs2)cc1C` [N-{4,5-dimethyl-2-[(2-thienylsulfonyl)amino]phenyl}-1-methyl-3-oxo-1,3-dihydro-2,1-benzisothiazole-5-sulfonamide], the “CCR2 % ANTAG” value is 91% and the IC50 came to 2190 nM.
With `CN(C)c1ccc(NS(=O)(=O)c2ccc3c(c2)c(=O)sn3C)c(NS(=O)(=O)c2cccs2)c1` [N-{4-(dimethylamino)-2-[(2-thienylsulfonyl)amino]phenyl}-1-methyl-3-oxo-1,3-dihydro-2,1-benzisothiazole-5-sulfonamide], the “CCR2 % ANTAG” value came out at 78% and the half-maximal inhibitory concentration (IC50) amounted to 1230 nM.
For `Cn1sc(=O)c2cc(S(=O)(=O)Nc3cc(C(F)(F)F)c(Cl)cc3NS(=O)(=O)c3cccs3)ccc21` [N-{4-chloro-2-[(2-thienylsulfonyl)amino]-5-(trifluoromethyl)phenyl}-1-methyl-3-oxo-1,3-dihydro-2,1-benzisothiazole-5-sulfonamide] the same measures were 87% and 522 nM.
Regarding `Cn1sc(=O)c2cc(S(=O)(=O)Nc3ccc(Cl)cc3NS(=O)(=O)c3cccs3)ccc21` [N-{4-chloro-2-[(2-thienylsulfonyl)amino]phenyl}-1-methyl-3-oxo-1,3-dihydro-2,1-benzisothiazole-5-sulfonamide], the “CCR2 % ANTAG” value worked out at 102% and the IC50 turned out to be 393 nM.
Turning to `Cc1cc(NS(=O)(=O)c2ccc3c(c2)c(=O)sn3C)c(NS(=O)(=O)c2cccs2)cc1Cl` [N-{4-chloro-5-methyl-2-[(2-thienylsulfonyl)amino]phenyl}-1-methyl-3-oxo-1,3-dihydro-2,1-benzisothiazole-5-sulfonamide], the “CCR2 % ANTAG” value is given as 75% and the IC50 stood at 311 nM.
As for `Cn1sc(=O)c2cc(S(=O)(=O)Nc3ccc(C#N)cc3NS(=O)(=O)c3cccs3)ccc21` [N-{4-cyano-2-[(2-thienylsulfonyl)amino]phenyl}-1-methyl-3-oxo-1,3-dihydro-2,1-benzisothiazole-5-sulfonamide], the “CCR2 % ANTAG” value stood at 31%.
For the compound `CC(C)c1ccc(NS(=O)(=O)c2ccc3c(c2)c(=O)sn3C)c(NS(=O)(=O)c2cccs2)c1` [N-{4-isopropyl-2-[(2-thienylsulfonyl)amino]phenyl}-1-methyl-3-oxo-1,3-dihydro-2,1-benzisothiazole-5-sulfonamide], the “CCR2 % ANTAG” value is listed as 87% and the IC50 came to 886 nM.
For `COc1ccc(NS(=O)(=O)c2ccc3c(c2)c(=O)sn3C)c(NS(=O)(=O)c2cccs2)c1` [N-{4-methoxy-2-[(2-thienylsulfonyl)amino]phenyl}-1-methyl-3-oxo-1,3-dihydro-2,1-benzisothiazole-5-sulfonamide] the same measures were 60% and 1300 nM.
With `Cn1sc(=O)c2cc(S(=O)(=O)Nc3cc(Br)ccc3NS(=O)(=O)c3cccs3)ccc21` [N-{5-bromo-2-[(2-thienylsulfonyl)amino]phenyl}-1-methyl-3-oxo-1,3-dihydro-2,1-benzisothiazole-5-sulfonamide], the “CCR2 % ANTAG” value is reported as 100% and the IC50 came out at 537 nM.
On to `Cn1sc(=O)c2cc(S(=O)(=O)Nc3cc(Cl)ccc3NCc3cccs3)ccc21` [N-{5-chloro-2-[(2-thienylmethyl)amino]phenyl}-1-methyl-3-oxo-1,3-dihydro-2,1-benzisothiazole-5-sulfonamide], for which the “CCR2 % ANTAG” value amounted to 83% and the IC50 worked out at 1080 nM.

Broadly, the IC50 is the midpoint of a concentration-inhibition curve.
